Results: patent US20050172344A1, “Cell cultures from animal models of Alzheimer's disease for screening and testing drug efficacy” (priority 2002, published 2005)

How the values were obtained:
Type in all cases: cell-based, mouse
[1] = tested on: cultured murine hippocampal neurons; test: evoked EPSCs and tetanus-induced potentiation in cultured neurons; conditions: for effect on EPSC amplitude (in words): evoked EPSCs, FIG. 2B
[2] = tested on: cultured hippocampal neurons from double transgenic mAPP/mPS1 mice; test: basal mEPSC frequency (spontaneous neurotransmitter release), whole cell patch clamp, mAPP/mPS1 cultures
[3] = tested on: cultured hippocampal neurons from WT mice; test: basal mEPSC frequency (spontaneous neurotransmitter release), whole cell patch clamp, WT cultures
[4] = tested on: cultured hippocampal neurons from double transgenic mAPP/mPS1 mice; test: glutamate-induced enhancement of mEPSC frequency (synaptic plasticity), mAPP/mPS1 cultures
[5] = tested on: cultured hippocampal neurons from WT mice; test: glutamate-induced increase of mEPSC frequency, WT cultures
[6] = tested on: cultured hippocampal neurons from WT mice; test: FM 1-43 vesicle cycling: number of active presynaptic boutons, WT cultures
From the text: Cationic styrylpyridinium dye FM 1-43 has become an established tool for identifying actively firing neurons and for investigating the mechanisms of activity-dependent vesicle cycling in widely different species. These water soluble dyes, which are non-toxic to cells virtually nonfluorescent in aqueous medium, become internalized within recycled synaptic vesicles and the nerve terminals become brightly stained. The amount of FM 1-43 taken up per vesicle by endocytosis equals the amount of dye released upon exocytosis.
One of the methods to induce exocytosis/endocytosis in the neuronal culture is by perfusion of the hyperkalemic solution. […] The perfusion solution is then changed back to normal bath solution for 10 minutes to wash off the dye from the external medium. ADVASEP-7 (1 mM, CyDex, Inc., Overland Park, Kans.), an anionic cyclodextrin complexing agent is introduced for 60 seconds in the washing bath solution at 1 and 6 minutes of washing for enhanced removal of the dye from the external medium (FIG. 6A). After 10 min wash period, which is sufficient for the complete recycling and repriming of the dye-stained population of synaptic vesicles, an image was then taken to record the loading of FM 1-43 in the synaptic boutons. The culture is then exposed to multiple 15 seconds application of hyperkalemic bath solution (without FM 1-43) to evoke repeated cycles of exocytosis, which facilitate release of the dye from the vesicles. An image is taken after 30 minutes of repeated cycles of exocytosis and washing with normal bath solution. The difference between the images before and after multiple exposures to hyperkalemic solution gives the measure of FM 1-43 stained vesicles.
To study glutamate-induced presynaptic plasticity changes, the culture is exposed to glutamate (200 μM) in Mg^2+ free bath solution for 30 seconds and then washed out in approximately 1 minute. After 30 minutes of glutamate exposure, the staining and destaining procedure is repeated. NMDA receptor antagonist, d-AP5 (40 μM) and non-NMDA receptor antagonist, CNQX (20 μM) are included in the hyperkalemic solution to block possible recurrent excitation and induction of activity-dependent plasticity. All images were acquired using Nikon D-Eclipse C1 confocal microscope. Cultures were viewed with 60×/1.2 nA water immersion objective. An investigator blinded to experimental conditions obtained quantitative data using NIH Image (v. 1.61). For each image, the intensity of individual puncta and total number of puncta was assessed. FIG. 6B illustrates exemplary cycling vesicles before and after glutamate exposure in cell cultures from wild type (WT) and mAPP/mPS1 littermates. A brief application of glutamate produces enhancement of cycling vesicles in WT but not mAPP/mPS1 cell cultures (FIG. 6C).
Another finding on cell cultures from transgenic mouse models of Alzheimer's disease is represented by the increase in basal number of functional presynaptic release sites as well as the lack of the glutamate-induced increase in number of functional presynaptic release sites. These tests were performed using FM 1-43. Therefore, we also tested whether these phenomena occurred in non transgenic cultures following exposure to exogenous oligomeric Aβ. […] Brief application (˜30 sec) of 200 μM glutamate in Mg^2+ free medium caused a significant increase in number of active boutons in cultures from vehicle-treated WT animals (269.70±33.12%, n=6, p<0.001, one way ANOVA) ) (FIG. 12B). […]

[7] = tested on: cultured hippocampal neurons from WT mice; test: immunocytochemistry: synapsin I- and synaptophysin-immunoreactive puncta, WT cultures
Method: Glutamate in Mg^2+-free bath solution, or normal bath solution (control) was added directly to the culture dish and washed out after approximately 1 min by exchanging the solution with phosphate-buffered saline (PBS), (pH 7.4) 2 times. The cultures were fixed starting approximately 30 min after the application of glutamate, or control solution. The cultures were incubated overnight with affinity-purified rabbit anti-synapsin I (Molecular Probes) diluted 1:200. The secondary antibody was goat anti-rabbit labeled with Rhodamin Red diluted 1:500 in 4% goat serum in PBS. Cells were mounted in Vectashield (Vector Labs) and examined by confocal microscope (Nikon D-Eclipse C1). The cells were excited using the 568 nm lines of a krypton-argon laser to image Cy3. Kalman averages of 4 scans were collected for each image. Ten neurons in each culture dish were selected at random and analyzed by an observer who was blind to the experimental treatment. Fields with roughly equal densities of neurites were chosen for analysis. Synapsin I clusters in a representative field (94×142 μm) around the neuron were quantified using a computer program NIH Image (v. 1.61). Individual clusters were identified based on having a fluorescence intensity that exceeded a threshold set above background and a diameter between 0.5 and 5 μm. For all measures, the mean result from the 10 neurons in the dish was normalized to the mean from control dishes in the same culture batch because variability between different culture batches was greater than between dishes in the same batch. FIG. 7 illustrates the effects of glutamate on the number of synapsin I-immunoreactive clusters in WT and mAPP/mPS1 cell cultures. Synapsin I-immunoreactive clusters are more numerous in glutamate-exposed than control cell WT cultures (FIGS. 7A, 7B).
In light of the microstructural changes involving synapsin I and synaptophysin in cultures from transgenic animals, we also tested whether these changes could be induced by the exogenous application of Aβ. […] We next tested whether the number of synapsin I- and synaptophysin-immunoreactive puncta was increased after glutamate application in Aβ-treated cultures. […] These findings indicate that Aβ can produce coordinate changes in the distribution and/or expression of presynaptic proteins.
Aβ preparation: Oligomeric Aβ42 was prepared as previously described (Stine et al., 2003). Briefly, the lyophilized peptide (American Peptide) was re-suspended in 100% 1,1,1,3,3,3-hexafluoro-2-propanol (HFIP; Sigma). The solution was aliquoted and the HFIP was allowed to evaporate in the fume hood. The resulting clear peptide films were dried under vacuum in a SpeedVac and stored at −20° C. Twenty-four hours prior to use, the aliquots were added dimethylsulfoxide (DMSO) (Sigma) and sonicated for 10 minutes. Oligomeric Aβ42 was obtained by diluting Aβ42-DMSO into cell culture media, vortexed for 30 seconds and incubated at 4° C. for 24 hours until the use. To induce plasticity 200 μM glutamate in a Mg^2+-free solution was added for ˜30 sec.

[8] = Aβ42-treated cultures fixed 30 minutes after 200 μM glutamate application
[9] = WT cultures, 200 pM oligomeric Aβ42 for 24 hours vs vehicle-treated

## N[C@@H](CCCP(=O)(O)O)C(=O)O [APV]
[1]; 100 Hz tetani, extracellular application, FIG. 2C
  effect on potentiation of EPSC by high frequency stimulation (in words): blocked
[1]
  effect on EPSC amplitude (in words): reduces the amplitude of the EPSCs

## N#Cc1cc2[nH]c(=O)c(=O)[nH]c2cc1[N+](=O)[O-] [CNQX]
[1]
  effect on EPSC amplitude (in words): blocks the remaining part of the EPSC

## CC(C)C[C@H](NC(=O)[C@H]1O[C@@H]1C(=O)O)C(=O)NCCCCN=C(N)N [E64]
[2]; mAPP/mPS1 cultures treated with E64 1 μM added daily to culture medium
  basal mEPSC frequency: 435 events/minute
[2]; mAPP/mPS1 cultures, E64 for 3 to 4 days, FIG. 4
  effect on basal mEPSC frequency (in words): re-established normal mEPSC frequency
[3]; WT cultures treated with E64 1 μM added daily
  basal mEPSC frequency: 332 events/minute
[4]; mAPP/mPS1 cultures treated with E64, 45 minutes after application of glutamate, n=6
  mEPSC frequency after glutamate (synaptic plasticity): 346.44±41%
[4]; mAPP/mPS1 cultures, glutamate-induced mEPSC enhancement, FIG. 5
  effect on synaptic plasticity (in words): re-established normal synaptic plasticity

## oligomeric Aβ42: lyophilized β-amyloid 42 peptide (American Peptide) treated with HFIP and DMSO, then diluted into culture media to form oligomers
[3]; FIG. 11A
  effect on basal frequency of spontaneous release of neurotransmitter (in words): increases
[3]; WT cultures, 200 pM oligomeric Aβ42 for 24 hours
  mEPSC amplitude vs vehicle-treated cultures (in words): did not find any difference
[3]; WT cultures, 200 pM oligomeric Aβ42 for 24 hours, n=8
  basal frequency of spontaneous release of neurotransmitter: 671.46 ± 48.28 min⁻¹
[5]; FIG. 11B
  effect on glutamate-induced mEPSC frequency increase (in words): blocks
[5]; WT cultures, 200 pM Aβ42 for 24 hours, 45 min after 200 μM glutamate, n=10
  mEPSC frequency after glutamate: 104.43±3.05 % of pre values
[5]; WT cultures, Aβ-treated, vehicle instead of glutamate, n=8
  basal mEPSC frequency with vehicle added instead of glutamate: 112.00±11.34 % of pre values
[5]; cultures treated with Aβ
  mEPSC amplitude after glutamate treatment (in words): did not produce any change
[6]; Aβ-treated cultures
  mean fluorescence intensity of the labeled boutons (in words): did not find any change
[6]; Aβ-treated cultures, ~30 sec 200 μM glutamate in Mg2+ free medium, n=8
  number of active boutons after glutamate: 86.80±4.6 % increase
[6]; FIG. 12A
  effect on basal number of active presynaptic boutons (in words): increases
[6]; FIG. 12B
  effect on glutamate-induced increase in the number of active boutons (in words): blocks
[6]; WT cultures treated for 24 hrs with Aβ42, n=15
  basal number of active boutons: 38.15±3.6 boutons/unit length of neurite
[7]; [8]
  number of synapsin I-immunoreactive puncta after glutamate: 111.55±8.97%
  number of synaptophysin-immunoreactive puncta after glutamate: 115.48±5.76%
[7]; FIG. 13A
  effect on basal number of synapsin I- and synaptophysin-immunoreactive puncta (in words): increases
[7]; FIG. 13B
  effect on glutamate-induced increase in synapsin I- and synaptophysin-immunoreactive puncta (in words): blocks
[7]; [9]
  basal number of synapsin I immunoreactive puncta: 1155.53±6.78 % of control
  basal number of synaptophysin immunoreactive puncta: 146.13±6.15%
